# Data from US10590392B2, “Generation of airway epithelial organoids from human pluripotent stem cells” (TRUSTEES OF BOSTON UNIVERSITY, priority 2017, dated 2020).
# System: sorted NKX2-1GFP+ epithelial lung progenitors
# Assay: Purified NKX2-1GFP+ lung progenitors replated in 3D culture with or without CHIR, day 14 to 20
# Format: cell-based, human
# Method: Cells grown in two-dimensional culture were harvested by incubation with 0.05% Trypsin-EDTA for 10-20 minutes at 37° C. Cells cultured in three-dimensional growth factor reduced Matrigel were harvested by incubation with 2 mg/mL dispase (ThermoFisher) for 30-60 minutes at 37° C. then subsequent incubation with 0.05% trypsin at 37° C. until a single cell suspension was achieved. Cells were washed with media containing 10% fetal bovine serum (FBS, ThermoFisher.) Harvested cells were spun at 300 RCF for 5 minutes at 4° C. and resuspended in buffer containing Hank's Balanced Salt Solution (ThermoFisher), 2% FBS and 10 μM Y-27632 (Tocris) and stained with propidium iodide (ThermoFisher) or calcein blue AM (ThermoFisher) for dead cell exclusion during flow cytometry. Live cells were sorted on a high speed cell sorter (MoFlo Legacy, Beckman Coulter, Pasadena, Calif.) at the Boston University Medical Center Flow Cytometry Core Facility based on NKX2-1GFP expression or by staining for CD47 (Biolegend) and CD26 (Biolegend) and gating for CD47^hi/CD26^−. […]
# The final protocol for generating rapidly proximalized NKX2-1+ lung epithelium was replating unsorted or sorted cells for 4 days of culture post-specification in cSFDM containing 10 ng/mL FGF10. […] Cells were analyzed for expression of proximal markers 4 days post-replating in FGF10 media.
# The inventors next assessed whether the effect of CHIR manipulation on proximodistal lung patterning was intrinsic to lung epithelial cells rather than due to secondary or bystander effects. […] By day 20, the sorted cells formed small spheres coexpressing NKX2-1 and EPCAM (FIG. 3B-3C). >90% of all outgrowth cells in either culture conditioned maintained NKX2-1^GFP (+CHIR: 98.2±0.5%−CHIR: 93.4±2.3%) (FIG. 3D-3E) and cells in each condition formed organoids with no measured statistical difference in efficiency.
# [1] = withdrawal of CHIR, re-sorted NKX2-1GFP+ cells at day 20
smiles,measurement,setting,value
"Cc1c[nH]c(-c2cnc(NCCNc3ccc(C#N)cn3)nc2-c2ccc(Cl)cc2Cl)n1 [CHIR, CHIR99021]",outgrowth cells maintaining NKX2-1GFP on day 20,"+CHIR day 14-20, 3D culture of sorted cells, flow cytometry, −CHIR: 93.4±2.3%",98.2±0.5%
same,expression of distal lung genes SOX9 and ETV5,[1],downregulation
same,"expression of proximal lung genes SOX2, SCGB3A2, TP63",[1],upregulation
